Here are results for two substances from patent publication US6605115B1, “Method and composition for inhibiting cardiovascular cell proliferation” (Board of Trustees of the Leland Stanford Junior University, priority 1999, dated 2003).

The subject of experiment [1] is human umbilical vein endothelial cells (ECV304). The experiment is described as follows: In vitro translocation of biotin-labeled peptides into endothelial cells. Format: cell-based. The protocol:
Spontaneously transformed human umbilical vein endothelial cells (ECV304, ATCC) were cultured in medium M199 (Irvine Scientific) containing 10% fetal bovine serum (FBS), 100 IU/ml penicillin and 100 μg/ml of streptomycin (Gibco BRL). Confluent cells were washed and placed in serum-free medium. After 2 hours, the cells were incubated in presence of biotin labeled peptides, as bL-R7, or bD-R7, or bL-K7 (0.1, 1.0, and 10.0 μM). After 30 minutes of incubation, cells were washed 3 times with phosphate-buffered saline (PBS), fixed in ethanol/acetone; washed in PBS; incubated for 30 minutes with peroxidase suppressor (ImmunoPure, Pierce) to block endogenous peroxidase activity; and then incubated with 5 μg/ml of horse-radish peroxidase (HRP) conjugated strepavidin (Pierce) for 30 minutes. Substrate of HRP, diaminobenzidine (DAB, Sigma), was added to the cells. The reaction was terminated by washing in distilled water after a 60-second incubation. This experiment was repeated 3 times.

In the next experiment the test system is jugular vein segments. In words: Ex vivo translocation study, jugular vein segments. Set-up: species or system New Zealand white rabbits. The conditions noted are these: 10 μM, 30 minutes. As to the method: (§1) After incubation with biotin labeled oligomer, vascular segments were washed, then frozen in OCT compound (Miles Scientific). Frozen sections, 5 μm thick, were fixed with acetone for 10 minutes. Internalized biotin was detected using the staining procedure described in Example 2. Methyl green was used for nuclear counter staining.
(§2) To quantify the efficiency of nuclear translocation, the numbers of both DAB positive nuclei and total nuclei were counted in the intima and media separately at ×400 magnification with a video image analysis system (Automatrix). The frequency of nuclear translocation was expressed as the percent staining of nuclei, defined as the ratio of the number of DAB positive nuclei to that of all nuclei, in the intima and media. Each protocol was repeated 4 times.
Both carotid artery and jugular vein segments of male New Zealand white rabbits were used. To test the dose dependence of R7 translocation, vascular segments were incubated for 30 minutes with either bL-R7 or bD-R7 solution (0.1, 1.0, and 10.0 μM) in serum-free Dulbecco's minimal essential medium (DMEM) (Gibco BRL). To test the incubation time dependence, vascular segments were incubated with 10.0 μM of biotin labeled R7 solution for 10 seconds, 60 seconds, 5 minutes, 10 minutes, and 30 minutes. […]

Experiment [2] deals with rabbit carotid artery segment. The experiment is described as follows: Ex vivo translocation study, carotid artery segments. Set-up: species or system New Zealand white rabbits. The conditions noted are these: carotid artery, 10.0 μM, 30 minutes. The protocol: as §1, §2
Both carotid artery and jugular vein segments of male New Zealand white rabbits were used. To test the dose dependence of R7 translocation, vascular segments were incubated for 30 minutes with either bL-R7 or bD-R7 solution (0.1, 1.0, and 10.0 μM) in serum-free Dulbecco's minimal essential medium (DMEM) (Gibco BRL). To test the incubation time dependence, vascular segments were incubated with 10.0 μM of biotin labeled R7 solution for 10 seconds, 60 seconds, 5 minutes, 10 minutes, and 30 minutes. Furthermore, to determine the ability of R7 to penetrate through the vessel wall, vascular segments were ligated one end, R7 containing medium was instilled, and the other end ligated so as to expose only the luminal surface to R7. The luminal surface of the vascular segment was exposed to bL-R7 or bD-R7 (10.0 μM) for 30 minutes. To test the temperature dependence of translocation, vascular segments were incubated with 10.0 μM of biotin labeled R7 solutions at 37° C. or 4° C. To determine the disappearance time course of translocated R7, vascular segments were incubated with biotin labeled R7 solutions (10.0 μM) at 37° C. for 30 minutes, and then reincubated in DMEM with 10% FBS up to 5 days. Vascular segments were harvested at 1, 2 and 5 days after initial incubation.

Experiment [3] concerns rat vascular smooth muscle cells (VSMC). In words: Translocation of biotin-labeled peptides into cultured VSMC (HRP-streptavidin/DAB staining). Format: cell-based. The conditions noted are these: 10 μM, 30 minutes, 37° C. As to the method:
In the studies described below, transmembrane transport and cellular uptake of oligomers was assessed by incubating cells or tissue with biotin-oligomer conjugates, followed by treatment with horseradish peroxidase (HRP)-conjugated streptavidin and subsequent incubation with DAB (3,3′-diaminobenzidine), a substrate of the enzyme which produces a highly colored product.
Cultured VSMC (vascular smooth muscle cells) were treated, as described in Example 2, with biotinylated oligomers of arginine or lysine. After incubation, the cells were treated with HRP-streptavidin conjugate, then with DAB. Staining by the oxidation product was observed using light microscopy.
Rat VSMCs were grown on glass microscope slide chambers (Nunc Inc., Naperville, Ill.). Subconfluent cells were washed and placed in serum-free medium. After 2 hours, cells were treated with bR7, or bK7 (0.1 μM, 1.0 μM, 10 μM), at 37° C. for 30 minutes. To assess the role of endocytosis in cellular uptake of the peptides, experiments were performed at 4° C., and also in the presence of sodium azide (1.0%) for 30 minutes prior to exposure to the peptides. To assess the involvement of the basic amino acid transport system y+ in the translocation of peptides into the cell, experiments were performed in the presence of excess extracellular L-arginine (10 mM).
After 30 minutes of incubation with the peptides, cells were washed 3 times with phosphate-buffered saline (PBS), fixed for 5 minutes at −20° C. in ethanol/acetone, washed 3 times in PBS, incubated for 30 minutes with a peroxidase suppressor (ImmunoPure, Pierce, Rockford, Ill.) to block endogenous peroxidase activity and nonspecific binding, washed, and then incubated with 5 μg/ml of horseradish peroxidase (HRP) conjugated strepavidin (Pierce, Rockford, Ill.) for 30 minutes. Cells were washed 3 times with PBS, and a substrate of HRP, DAB (Sigma, St. Louis, […].), was added to the cells. The reaction was terminated by washing in distilled water after a 60-second incubation with DAB. Cell preparations were observed by conventional light microscopy (see FIG. 1). This experimental protocol was repeated 3 times.

The next experiment has as its system vein graft segments. In words: Ex vivo NOx production from vein graft harvested 3 days after surgery. Format: in vivo, New Zealand white rabbits. The conditions noted are these: vein grafts harvested after 3 days, absence of calcium ionophore. The protocol: Vein grafts were harvested 3 days after surgery, as described in Example 7. Vein graft segments were incubated in 1 me of Hanks' buffered saline solution (HBSS, Irvine Scientific) containing Ca^2+ (1.0 mM) and L-arginine (100 μM, Sigma) at 37° C. for 2 hours. NOx (nitrate and nitrite) production was measured either in the absence (basal) or presence (stimulated) of calcium ionophore (A23187, 10.0 μM, Sigma). Samples of the medium (80 μL) were collected, and NOx measurement was performed using the Griess reaction facilitated by a commercial calorimetric assay (Cayman Chemical).

The subject of another experiment is Rat aortic VSMC. The experiment is described as follows: VSMC proliferation assay (XTT). The class given is cell-based. The following applies: 10.0 μM, 30 minutes, then growth medium 0.5% FBS for 48 hours; vs vehicle. As to the method:
Rat aortic VSMC were grown to 50% confluence in 96-well cell culture plates. VSMC were then washed and incubated with serum free DMEM for 48 hours to obtain quiescent nondividing cells. Thereafter, VSMC were treated with vehicle, L-R7 (10.0 μM), or D-R7 (10.0 μM) for 30 minutes. After the treatment, cells were washed, and further incubated with serum containing DMEM (0.5%, FBS). Cells were harvested after 48 hours of incubation. Cell count was performed with commercial cell proliferation assay kit using spectrophotometer (XTT, Boehringer Mannheim). As a negative control, cells treated with vehicle and incubated with DSF were used. As an index of cell proliferation, the OD ratio of each treatment group to negative control group was calculated as an index of cell proliferation.
Background: Tetrazolium assays rely on reduction of a dye to a coloured formazan, in cell work by metabolically active cells.

Experiment [4] concerns cytokine-stimulated VSMC. The experiment is described as follows: Effect of arginine oligomers on NO production in cytokine-stimulated VSMC (NO2, Griess). Format: cell-based, rat. The conditions noted are these: exposure 5 minutes; observed for 24 hours; free L-arginine at 1 mM.
The subject of experiment [5] is cytokine-stimulated VSMC. The description is as above. The class given is cell-based, rat. The protocol: Rat VSMCs were prepared from the media layer of thoracic aorta of Sprague-Dawley rats by the explant method. The cells were cultured in Dulbecco's modified Eagle's medium (DMEM, Gibco BRL, Gaithersburg, Md.) containing 10% fetal calf serum, 100 U/ml penicillin and 100 μg/ml streptomycin at 37° C. under a humidified atmosphere containing 5% CO2. After subconfluent growth, cells were cultured with MEM Select Amine Kit (Gibco BRL, Gaithersburg, Md.) to be treated by specific concentrations of extracellular free L-arginine. Experiments were performed using cultured cells at passage levels of 5-10.
Extracellular NO production was measured as its stable oxidative metabolite, nitrite (NO2). At the end of each incubation, samples of the medium (80 μl) were collected, and NO2 measurement was performed using the Griess reaction facilitated by a commercial calorimetric assay (Cayman Chemical, Ann Arbor, Mich.). Values of NO2 production were corrected with relative cell count assessed by a cell proliferation kit II (XTT) (Boeheringer Mannheim, Germany).
Subconfluent cells were pre-incubated with medium containing 100 μM arginine for 24 hours. The cells were then transiently pretreated with each arginine polymer for 30 minutes. After translocation, the cells were incubated with a mixture of IFN-γ (100 U/ml) and LPS (100 μg/ml) in medium containing 100 μM L-arginine for another 24 hours. In some experiments, L-NMMA (1 mM), a nitric oxide synthase inhibitor, was added to the medium.

The test system of the next experiment is iNOS protein. The experiment is described as follows: Assay for iNOS protein expression (western blotting). Format: cell-based, rat. The conditions noted are these: 10 μM, 30 minutes exposure, cells stimulated by IFN-γ and LPS. As to the method:
In order to clarify the effects of arginine polymer translocation on iNOS expression, iNOS protein concentrations of rat VSMC were analyzed by western blotting. Samples were analyzed from non-stimulated cells, cells stimulated with IFN-γ (100 U/ml) and LPS (100 μg/ml), or R7 (10 μM) pretreated cells which were stimulated with IFN-γ and LPS. Treated cells were washed twice with PBS, and total cell lysates were harvested in 150 μl of lysis buffer containing 150 mM NaCl, 50 mM Tris/Cl, pH 8.0, 1% NP40, and 0.1% SDS. Samples were centrifuged for 5 minutes at 14,000 g, 4° C., to remove insoluble material, and the supernatant was collected. Protein concentrations were measured with the Lowry method. Cell lysates containing 50 μg of protein were boiled for 5 minutes and separated on an 8.0% SDS-polyacrylamide minigel. Eluted proteins were electroblotted onto nitrocellulose membrane (HyBond, Amersham, England). The blots were incubated for 1 hour in 5% non-fat dry milk/0.05% Tween® in Tris buffered saline (TBS) to block non-specific binding of the antibody. Blots were incubated for 3 hours with primary monoclonal antibodies against iNOS protein diluted 1:2,500 in TBS/Tween®. The blots were then incubated with peroxidase labeled gout anti-mouse IgG in the same buffer for 1 hour. […]

The test system of another experiment is vein grafts. The experiment is described as follows: Vein graft model: vessel morphometry 28 days after surgery. Format: in vivo, New Zealand white rabbits. As to the method: Male New Zealand white rabbits (3.0-3.5 kg) fed standard diets were anesthetized with a mixture of ketamine (40 mg/kg) and xylazine (5 mg/kg) intramuscularly. The left external jugular vein was exposed through a longitudinal neck incision. The jugular vein was excised, gently flushed and immersed in PBS (control) or PBS containing either L-R7 (10.0 μM) or D-r7 (10.0 μM) for 30 minutes.
The right common carotid artery was exposed and clamped at the both proximal and distal ends. The treated vein segment was washed with PBS and then anastomosed in a reverse end-to-side fashion into the carotid artery, using continuous 8-0 polypropylene sutures. The common carotid artery was ligated and dissected between the two anastomoses, and the wound was closed with 3-0 nylon suture.
Vein graft segments were harvested on the 28th surgical day. Graft segments were fixed in 10% buffered formalin with gentle intraluminal pressure to maintain the physiological graft configuration. The middle portion of the paraffin samples were sectioned (5 μm) and stained with hematoxylin/eosin for light microscopic examination (FIGS. 8A-C). Three sections of each graft, taken at 0.5 mm intervals, were analyzed by planimetry by a observer blinded to the treatment group. The cross-sectional areas of the lumen, intima and media was digitized with the use of the Image Analyst program (Automatrix). The ratio of intima to media (I/M) area was calculated.

As for “biotin-labeled heptalysine [bK7, reference compound]”, the internalized biotin signals entry in [1] (endothelial cells, 0.1, 1.0, and 10.0 μM, 30 minutes) is reported as “No internalized biotin signals were detected”. Further, the biotin staining pattern result in the experiment with jugular vein segments is “no stained cells were apparent”. The “biotin signal in vascular cells” value in experiment [2] is listed as “no stained cells were apparent”. The “internalized biotin signal (staining)” value in experiment [3] is listed as “no internalized biotin signal was observed”.
As to hepta-L-arginine [R7], in experiment [1] (VSMC and endothelial cells in culture), the “translocation across cytoplasmic and nuclear membranes” value was “very efficient at translocating across both cytoplasmic and nuclear membranes”. Besides, in the experiment with vein graft segments, the “Basal NOx production” value came to 80±14 nM/mg tissue/hr. Also, the VSMC proliferation entry in the experiment on Rat aortic VSMC is on record as “significantly inhibited”. In addition, the “NO biosynthesis after 5 minutes exposure” value with cytokine-stimulated VSMC [4] was “sustained increase in NO biosynthesis”. In addition, the “elevation of NO production” value with cytokine-stimulated VSMC [5] (R7 10 μM pretreatment, free L-arginine up to 1 mM) is “significant elevation of NO production”. Besides, in the experiment with cytokine-stimulated VSMC [5] (pretreatment 30 minutes, then IFN-γ and LPS, 100 μM extracellular L-arginine), the NO production result is reported as “dose-dependent increases in NO production at doses as low as 10 μM”. The “degree of enhancement of NO production” value with cytokine-stimulated VSMC [5] (pretreatment 30 minutes, vs. vehicle treated cytokine-stimulated cells) is listed as 24±3.8%. For the same substance, the “expression levels of iNOS” value in the experiment on iNOS protein is reported as “no effect on the expression levels of iNOS”. For the same substance, in the experiment on vein grafts, the myointima formation result is listed as “substantially less myointima formation”. Also, the “intima/media ratio (I/M)” value with vein grafts (10.0 μM) worked out at 0.4±0.2. The intimal area with vein grafts (10.0 μM, 30 minutes immersion) is reported as 0.5±0.2 mm^2. For the same substance, the “reduction of intimal area” value with vein grafts (10.0 μM, vs control) is on record as “more than 70%”.
